Experimental data taken from patent US20080014255A1, “Liposome bonded with antibody and polyalkylene glycol” (Mitsubishi Chemical Corporation, priority 1999, published 2008).

Experiment: Pharmacokinetic test: plasma DXR concentration after tail vein administration of liposomes
Type: in vivo, Male BALB/cAjcl mice
Settings: free (leaked) DXR
Method: Male BALB/cAjcl mice (6-week old) were used in experiments. A mouse group consisting of four mice was used for each of the liposomes, and one untreated mouse was used as a blank in the experiment. The liposomes were administered into the tail vein at the dose of 2 mg/kg as DXR. After 16 hours from the administration, a Nembutal injection solution (Dainippon Pharmaceutical Co., Ltd.) was intraperitoneally administered to the mice and thoracotomy was performed under anesthetization to collect blood. Blood plasma was separated and used for analysis of DXR.
100 μL of the plasma was added with 1 mL of 0.3 M hydrochloric acid/50% ethanol (hydrochloric ethanol) and heated at 60° C. for 10 minutes to extract DXR. The extract was cooled to 4° C. and centrifuged at 15,000 rpm for 10 minutes to collect a supernatant. The sample was diluted 4 times with hydrochloric ethanol and its fluorescence was measured at a fluorescence wavelength of 590 nm with an excitation wavelength of 490 nm. A calibration curve was prepared by using DXR diluted with hydrochloric ethanol to known concentrations and used in quantification of DXR in plasma. The recovery of DXR from the mouse plasma was 95 to 98% in a range of […] of DXR (Reference: Cancer Res., 47, 4471, 1987).
DXR in blood plasma was quantified in the same manner as in Example 2.

COc1cccc2c1C(=O)c1c(O)c3c(c(O)c1C2=O)C[C@@](O)(C(=O)CO)C[C@@H]3O[C@H]1C[C@H](N)[C@H](O)[C@H](C)O1 [DXR, doxorubicin]
disappearance from blood of DXR leaked from the liposomes: rapidly disappear from blood
